Test results: patent publication US20100092574A1, “SYNERGISTIC PEROXIDE BASED BIOCIDAL COMPOSITIONS” (priority 2008, published 2010)
Values belong to the compound of their own block, whether it stands above or below them.

Assays:
[1] = Stability of active halogen species in the presence of residual H2O2; format: physicochemical
Experimental: The stability of nitrogen-bound active halogen species in the presence of residual H2O2 was investigated. Free and total chlorine concentrations were measured by standard DPD methodology and the total H2O2 concentration by acidic […] titration. The concentration of MCDMH is the concentration of the total active halogen less the concentration of free active halogen. The concentration of H2O2 is the total oxidant concentration less the MCDMH concentration. […] The indicated reaction is shown in Equation 6.
The effect of the addition of a molar equivalent of 5,5-dimethylhydantoin (DMH) to NaOCl solutions prior to combination with hydrogen peroxide was investigated. The concentration of MCDMH is the concentration of the total active halogen less the concentration of free active halogen. The concentration of H2O2 is the total oxidant concentration less the MCDMH concentration.

[2] = Residual sulfite and hydrogen peroxide content after mixing (co-stability); format: physicochemical
Experimental: Aqueous solutions containing sodium sulfite and hydrogen peroxide were mixed at 21° C. to obtain a solution having a sulfite content (as SO3^2−) of 40 ppm, a hydrogen peroxide content of 20.0 ppm and a pH of 6.7. The temperature of the solution was maintained at 21° C. and the residual sulfite and peroxide content was determined at 15, 30 and 60 minutes after mixing. The procedure consisted of adding a known amount of 1-chloro-5,5-dimethylhydantoin (MCDMH) to the samples in excess of the estimated residual sulfite content. The remaining MCDMH concentration was then measured by standard DPD total halogen methodologies. As sulfite rapidly neutralizes MCDMH at all pHs the sulfite concentration is the concentration of MCDMH added less the concentration of MCDMH measured, see Equation 1 below.
[Sulfite]=[MCDMHadded]−[MCDMHmeasured] (1)
The H2O2 concentration was determined by recording the concentration of H2O2 measured using acidic thiosulfate titration with KI indicator (HACH HYP-1 hydrogen peroxide test kit—Hach Co., Loveland, Colo.). Since this titration is run at acidic pH, this method yields the concentration of H2O2 in excess of the sulfite concentration contained in the sample. As the sulfite concentration is known from the MCMDH analysis and Equation 1, the H2O2 concentration can be calculated using the following Equation 2:
[H2O2]=[H2O2 measured]+[Sulfitecalculated] (2)
The estimated error in the methodology is ±1 ppm
The procedure of Example 1 was repeated with the difference that the pH of the mixed solution was 9.0 and the residual concentrations were determined 5, 15, 30, 60, 120 and 1080 minutes after mixing.

[3] = system: Pseudomonas aeruginosa; assay: Bactericidal efficacy of sulfite and hydrogen peroxide solutions in the absence of pulp; format: cell-based; conditions: for 3 h Reduction: pH 7.0, 3 h at 37° C.; for reduction: 50 ppm hydrogen peroxide, 3 h
Text: (§1) The expression “1 g cfu/mL” denotes the common (decadic) logarithm of the number of colony-forming units per milliliter or, in connection with the term “reduction”, the common logarithm of the quotient of the number of colony-forming units per milliliter before treatment and the number of colony-forming units after treatment. Unless otherwise indicated all concentrations in percent or ppm are expressed on a weight basis.
The bactericidal efficacy of solutions containing sulfite and hydrogen peroxide was further investigated in the absence of pulp. Efficacy was measured against Pseudomonas aeruginosa grown in nutrient in the presence of 83 and 830 ppm sulfite. The sulfite-containing P. aeruginosa inoculum was then diluted 1:99 with Butterfield's buffer at pH 7.0. The sulfite concentrations in Table 5 below are the those in the final dilution. The dilutions were then contacted with 50 ppm hydrogen peroxide for 3 h at 37° C.

[4] = system: microbial population of sulfite bleached pulp slurry (total aerobic counts); assay: Biocidal performance in sulfite bleached pulp slurry, total aerobic counts (tryptone soy agar plating); format: cell-based; conditions: for amount alone required to achieve 1 g cfu/mL reduction of 4.2: single agent; for 3 h Reduction: 3 h contact; for 24 h Reduction: 24 h contact
Text: as §1
Synergistic biocidal performance upon co-application of sulfite with hydrogen peroxide at elevated pH was investigated. The sulfite and peroxide concentrations indicated in Table 3 below were added to an aqueous solution made from: (a) deionized water, (b) NaHCO3 to achieve a carbonate buffer concentration of 200 ppm (as CaCO3 total alkalinity), (c) sulfite bleached pulp slurry to achieve a final consistency of 0.05%, carrying an associated minimal concentration of residual sulfite of 6 ppm, and (d) NaOH to achieve a pH of 9.0.
The microbial population was that provided by preparing the pulp slurry 24-48 h prior to testing and storing at room temperature, thus allowing microbial growth to a high test level. […] Populations reported are total aerobic counts using tryptone soy agar plating.
SI=(level of A)/(efficacious level of A)+(level of B)/(efficacious level of B) (3)
Synergy upon co-application of sulfite with hydrogen peroxide at higher concentrations of sulfite and hydrogen peroxide was investigated. The conditions were the same as in Example 3.

[5] = 2.1 ppm H2O2 + 1.0 ppm DMH stabilized NaOCl, 1 min
[6] = 2.1 ppm H2O2 + 1.0 ppm DMH stabilized NaOCl, 5 min
[7] = 2.1 ppm H2O2 + 1.0 ppm DMH stabilized NaOCl, 15 min
[8] = 2.1 ppm H2O2 + 1.0 ppm DMH stabilized NaOCl, 60 min
[9] = 2.1 ppm H2O2 + 1.0 ppm NaOCl (as Cl2), 1 min
[10] = 2.1 ppm H2O2 + 1.0 ppm NaOCl (as Cl2), 5 min
[11] = 2.1 ppm H2O2 + 1.0 ppm NaOCl (as Cl2), 15 min
[12] = combination of 2.1 ppm H2O2 with 1 ppm NaOCl (as Cl2), immediate
[13] = pH 6.7, 21° C., start 40 ppm sulfite + 20.0 ppm H2O2, 15 min
[14] = pH 6.7, 21° C., start 40 ppm sulfite + 20.0 ppm H2O2, 30 min
[15] = pH 6.7, 21° C., start 40 ppm sulfite + 20.0 ppm H2O2, 60 min
[16] = pH 9.0, start 40 ppm sulfite + 20.0 ppm H2O2, 5 min
[17] = pH 9.0, start 40 ppm sulfite + 20.0 ppm H2O2, 15 min
[18] = pH 9.0, start 40 ppm sulfite + 20.0 ppm H2O2, 30 min
[19] = pH 9.0, start 40 ppm sulfite + 20.0 ppm H2O2, 60 min
[20] = pH 9.0, start 40 ppm sulfite + 20.0 ppm H2O2, 120 min
[21] = pH 9.0, start 40 ppm sulfite + 20.0 ppm H2O2, 1080 min
[22] = Table 3 Test No. 2: sulfite 32 ppm, peroxide 0 ppm, pH 9.0
[23] = Table 3 Test No. 3: sulfite 128 ppm, peroxide 0 ppm, pH 9.0
[24] = Table 4 Test No. 2: sulfite 128 ppm, peroxide 0 ppm
[25] = Table 4 Test No. 3: sulfite 512 ppm, peroxide 0 ppm
[26] = Example 3, hydrogen peroxide alone (40-160 ppm per Table 3)
[27] = Example 4, hydrogen peroxide alone at 120-160 ppm
[28] = Table 3 Test No. 4: sulfite 0 ppm, peroxide 40 ppm, pH 9.0
[29] = Table 3 Test No. 5: sulfite 0 ppm, peroxide 160 ppm, pH 9.0
[30] = Table 4 Test No. 4: sulfite 0 ppm, peroxide 120 ppm
[31] = Table 4 Test No. 5: sulfite 0 ppm, peroxide 150 ppm
[32] = Table 4 Test No. 6: sulfite 0 ppm, peroxide 160 ppm

Free active halogen DPD (as Cl2) [1, 5]: 0.0 ppm
Indicated Species DMH stabilized NaOCl (as Cl2) [1, 5]: 0.9 ppm
Total active halogen DPD (as Cl2) [1, 5]: 0.9 ppm
Free active halogen DPD (as Cl2) [1, 6]: 0.0 ppm
Indicated Species DMH stabilized NaOCl (as Cl2) [1, 6]: 1.0 ppm
Total active halogen DPD (as Cl2) [1, 6]: 1.0 ppm
Free active halogen DPD (as Cl2) [1, 7]: 0.0 ppm
Indicated Species DMH stabilized NaOCl (as Cl2) [1, 7]: 0.9 ppm
Total active halogen DPD (as Cl2) [1, 7]: 0.9 ppm
Free active halogen DPD (as Cl2) [1, 8]: 0.0 ppm
Indicated Species DMH stabilized NaOCl (as Cl2) [1, 8]: 0.9 ppm
Total active halogen DPD (as Cl2) [1, 8]: 0.9 ppm
SMILES: CC1(C)C(=O)NC(=O)N1Cl [DMH stabilized NaOCl, 1-chloro-5,5-dimethylhydantoin]

Free active halogen DPD (as Cl2) [1, 9]: 0.0 ppm
Indicated Species NaOCl (as Cl2) [1, 9]: 0.0 ppm
Total active halogen DPD (as Cl2) [1, 9]: 0.0 ppm
Indicated Species NaOCl (as Cl2) [1, 10]: 0.0 ppm
Indicated Species NaOCl (as Cl2) [1, 11]: 0.0 ppm
free chlorine after combination [1, 12]: no detectable free chlorine
SMILES: [Na+].[O-]Cl [NaOCl]

SMILES: O=S([O-])[O-].[Na+].[Na+] [Sulfite, sodium sulfite]
Sulfite (as H2O2) [2, 13]: 3.1 ppm
Sulfite (as SO3^2−) ([2]; pH 6.7, 21° C., start 40 ppm sulfite + 20.0 ppm H2O2, 15 min after mixing): 7.2 ppm
Sulfite (as H2O2) [2, 14]: 2.3 ppm
Sulfite (as SO3^2−) ([2]; pH 6.7, 21° C., start 40 ppm sulfite + 20.0 ppm H2O2, 30 min after mixing): 5.4 ppm
Sulfite (as H2O2) [2, 15]: 0.0 ppm
Sulfite (as SO3^2−) ([2]; pH 6.7, 21° C., start 40 ppm sulfite + 20.0 ppm H2O2, 60 min after mixing): 0.0 ppm
Sulfite (as H2O2) [2, 16]: 7.9 ppm
Sulfite (as SO3^2−) [2, 16]: 18.7 ppm
Sulfite (as H2O2) [2, 17]: 6.8 ppm
Sulfite (as SO3^2−) [2, 17]: 16.0 ppm
Sulfite (as H2O2) [2, 18]: 6.7 ppm
Sulfite (as SO3^2−) [2, 18]: 15.7 ppm
Sulfite (as H2O2) [2, 19]: 6.2 ppm
Sulfite (as SO3^2−) [2, 19]: 14.6 ppm
Sulfite (as H2O2) [2, 20]: 5.2 ppm
Sulfite (as SO3^2−) [2, 20]: 12.3 ppm
Sulfite (as H2O2) [2, 21]: 0.1 ppm
Sulfite (as SO3^2−) [2, 21]: 0.3 ppm
3 h Reduction ([3]; Table 5 Test No. 2: sulfite 8.3 ppm, peroxide 0 ppm): 0.1 lg cfu/mL
3 h Reduction ([3]; Table 5 Test No. 3: sulfite 0.83 ppm, peroxide 0 ppm): 0.0 lg cfu/mL
effect on bacterial populations ([4]; Example 3, sulfite alone at 32-128 ppm): no significant effect
amount alone required to achieve 1 g cfu/mL reduction of 4.2 ([4]; Example 4): > 512 ppm
effect on the microbial populations ([4]; Example 4, sulfite at 128-512 ppm): no significant effect
3 h Reduction [4, 22]: −0.40 lg cfu/mL
24 h Reduction [4, 22]: 0.11 lg cfu/mL
3 h Reduction [4, 23]: −0.50 lg cfu/mL
24 h Reduction [4, 23]: −0.45 lg cfu/mL
3 h Reduction [4, 24]: 0.32 lg cfu/mL
24 h Reduction [4, 24]: 0.11 lg cfu/mL
3 h Reduction [4, 25]: 0.08 lg cfu/mL
24 h Reduction [4, 25]: −0.45 lg cfu/mL

Indicated Species H2O2 [1, 5]: 2.1 ppm
Indicated Species H2O2 [1, 6]: 1.9 ppm
Indicated Species H2O2 [1, 8]: 2.3 ppm
Indicated Species H2O2 [1, 9]: 1.8 ppm
Indicated Species H2O2 [1, 10]: 1.8 ppm
Indicated Species H2O2 [1, 11]: 1.4 ppm
H2O2 residue [1, 12]: ~1.6 ppm
H2O2 [2, 13]: 6.1 ppm
H2O2 [2, 14]: 5.1 ppm
H2O2 [2, 15]: 2.4 ppm
H2O2 [2, 16]: 16.9 ppm
H2O2 [2, 17]: 14.8 ppm
H2O2 [2, 18]: 14.7 ppm
H2O2 [2, 19]: 15.2 ppm
H2O2 [2, 20]: 13.2 ppm
H2O2 [2, 21]: 8.1 ppm
SMILES: OO [hydrogen peroxide]
reduction ([3]; P. aeruginosa grown up in 830 ppm sulfite diluted to 8.3 ppm during application): 1.5 1 g cfu/mL
reduction ([3]; P. aeruginosa grown up in the absence of sulfite): 0.9 1 g cfu/mL
3 h Reduction ([3]; Table 5 Test No. 4: sulfite 0 ppm, peroxide 50 ppm): 0.9 lg cfu/mL
reduction in 3 h [4, 26]: 1.2-3.5 1 g cfu/mL
reduction in 24 h [4, 26]: 5.5 1 g cfu/mL
reduction in 3 h [4, 27]: 3.3-4.0 1 g cfu/mL
reduction in 24 h [4, 27]: 3.7-5.5 1 g cfu/mL
amount alone required to achieve 1 g cfu/mL reduction of 4.2 ([4]; Example 4): ≥ 150 ppm
3 h Reduction [4, 28]: 1.2 lg cfu/mL
24 h Reduction [4, 28]: 5.5 lg cfu/mL
3 h Reduction [4, 29]: 3.5 lg cfu/mL
24 h Reduction [4, 29]: 5.5 lg cfu/mL
3 h Reduction [4, 30]: 4.0 lg cfu/mL
24 h Reduction [4, 30]: 4.5 lg cfu/mL
3 h Reduction [4, 31]: 4.2 lg cfu/mL
24 h Reduction [4, 31]: 3.7 lg cfu/mL
3 h Reduction [4, 32]: 3.3 lg cfu/mL
24 h Reduction [4, 32]: 5.0 lg cfu/mL
